According to patent US9062051B2, “Compounds and pharmaceutical compositions thereof for the treatment of proliferative disorders” (GALAPAGOS NV, priority 2014, dated 2015):

These compounds were tested against T1, EphB4 (UniProt Ref: Q541P7) (Homo sapiens, UniProt P54760) (assay: EphB4 assay (Reaction Biology HotSpot radioactive kinase assay)). Settings: ATP 10 μM; read-out: EphB4 potency IC50.
T1 construct: purchased Reaction Biology
T1 sequence (P54760 16-987): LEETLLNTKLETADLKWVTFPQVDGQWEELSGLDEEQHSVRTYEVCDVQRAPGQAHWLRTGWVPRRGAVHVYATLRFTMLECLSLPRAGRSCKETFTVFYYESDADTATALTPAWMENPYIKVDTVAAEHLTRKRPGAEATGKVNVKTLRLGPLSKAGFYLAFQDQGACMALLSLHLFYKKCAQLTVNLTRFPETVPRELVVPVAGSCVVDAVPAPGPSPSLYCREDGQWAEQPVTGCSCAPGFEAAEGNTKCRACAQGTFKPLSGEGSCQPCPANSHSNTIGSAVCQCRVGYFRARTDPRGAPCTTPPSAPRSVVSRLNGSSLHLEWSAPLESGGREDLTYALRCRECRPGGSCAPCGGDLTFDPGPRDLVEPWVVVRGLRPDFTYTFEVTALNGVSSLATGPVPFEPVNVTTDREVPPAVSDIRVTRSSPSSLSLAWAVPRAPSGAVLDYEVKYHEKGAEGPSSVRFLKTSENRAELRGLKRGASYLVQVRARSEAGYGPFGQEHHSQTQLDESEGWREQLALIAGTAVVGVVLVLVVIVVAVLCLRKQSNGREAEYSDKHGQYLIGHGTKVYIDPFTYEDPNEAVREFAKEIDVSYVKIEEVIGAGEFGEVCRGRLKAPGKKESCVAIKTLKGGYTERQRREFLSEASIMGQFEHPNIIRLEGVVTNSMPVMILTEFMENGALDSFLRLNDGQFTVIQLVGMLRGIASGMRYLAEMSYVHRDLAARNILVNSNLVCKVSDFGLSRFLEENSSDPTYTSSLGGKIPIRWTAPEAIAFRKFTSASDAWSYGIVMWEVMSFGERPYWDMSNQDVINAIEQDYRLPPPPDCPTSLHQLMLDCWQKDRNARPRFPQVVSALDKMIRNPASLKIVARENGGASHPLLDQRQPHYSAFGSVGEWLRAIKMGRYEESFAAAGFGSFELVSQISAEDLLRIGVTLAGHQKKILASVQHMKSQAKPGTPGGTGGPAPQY
Assay type: biochemical
Procedure: Inhibition of EphB4 (UniProt Ref: Q541P7) by a test compound is determined by a commercially available Reaction Biology proprietary nanoliter radioactive HotSpot^SM assay (Reaction Biology, One great valley parkway, Suite 2, Malvern Pa., 19355, USA). The principle of the assay consists of the measurement of incorporated ^33P into poly[Glu:Tyr] (4:1) (0.2 mg/mL) when the substrate is phosphorylated by the enzyme using [^33P]-γ-ATP and ATP (10 μM).
To determine the IC50, a serial dilution of compound is tested starting from 10 or 3 μM (highest dilution) with a 1/3 dilution.

First: Cc1ccc(NC(=O)c2cccc(C(F)(F)F)c2)cc1-c1ccc2c(C(O)CN3CCOCC3)n[nH]c2n1 (stereo not shown) [Compound 2, N-{3-[3-(1-Hydroxy-2-morpholin-4-yl-ethyl)-1H-pyrazolo[3,4-b]pyridin-6-yl]-4-methyl-phenyl}-3-trifluoromethyl-benzamide]
Second: Cc1ccc(C(=O)Nc2cccc(C(F)(F)F)c2)cc1-c1ccc2c(C(O)CN3CCOCC3)n[nH]c2n1 (stereo not shown) [Compound 5, 3-[3-(1-Hydroxy-2-morpholin-4-yl-ethyl)-1H-pyrazolo[3,4-b]pyridin-6-yl]-4-methyl-N-(3-trifluoromethyl-phenyl)-benzamide]
The IC50 of the first is lower: 0.01 to 25 nM for the first, 25 to 50 nM for the second. The first is the more potent here.

First: Cc1cccc(C(=O)Nc2ccc(C)c(-c3ccc4c(C(O)CN5CCOCC5)n[nH]c4n3)c2)c1 (stereo not shown) [Compound 3, N-{3-[3-(1-Hydroxy-2-morpholin-4-yl-ethyl)-1H-pyrazolo[3,4-b]pyridin-6-yl]-4-methyl-phenyl}-3-methyl-benzamide]
Second: Cc1ccc(NC(=O)c2cccc(N(C)C)c2)cc1-c1ccc2c(C(O)CN3CCOCC3)n[nH]c2n1 (stereo not shown) [Compound 6, 3-Dimethylamino-N-{3-[3-(1-hydroxy-2-morpholin-4-yl-ethyl)-1H-pyrazolo[3,4-b]pyridin-6-yl]-4-methyl-phenyl}-benzamide]
The IC50 of the first is lower: 0.01 to 25 nM for the first, 25 to 50 nM for the second. The first is the more potent here.

`COc1cc(OC)cc(C(=O)Nc2ccc(C)c(-c3ccc4c(C(O)CN5CCOCC5)n[nH]c4n3)c2)c1` (stereo not shown) [Compound 4, N-{3-[3-(1-Hydroxy-2-morpholin-4-yl-ethyl)-1H-pyrazolo[3,4-b]pyridin-6-yl]-4-methyl-phenyl}-3,5-dimethoxy-benzamide] and `COc1cc(OC)cc(C(=O)Nc2ccc(C)c(-c3ccc4c(C(C)O)n[nH]c4n3)c2)c1` (stereo not shown) [Compound 9, N-{3-[3-(1-Hydroxy-ethyl)-1H-pyrazolo[3,4-b]pyridin-6-yl]-4-methyl-phenyl}-3,5-dimethoxy-benzamide] fall in the same range of IC50: 25 to 50 nM for the first, 25 to 50 nM for the second.

Compared with `COc1cc(OC)cc(C(=O)Nc2ccc(C)c(-c3ccc4c(C)n[nH]c4n3)c2)c1` [Compound 11, 3,5-Dimethoxy-N-[4-methyl-3-(3-methyl-1H-pyrazolo[3,4-b]pyridin-6-yl)-phenyl]-benzamide], `COc1cc(OC)cc(C(=O)Nc2cnc(C)c(-c3ccc4c(C)n[nH]c4n3)c2)c1` [Compound 17, 3,5-Dimethoxy-N-[6-methyl-5-(3-methyl-1H-pyrazolo[3,4-b]pyridin-6-yl)-pyridin-3-yl]-benzamide] is higher in IC50: 0.01 to 25 nM for the first, 25 to 50 nM for the second.

Compared with `CCc1n[nH]c2nc(-c3cc(NC(=O)c4cc(OC)cc(OC)c4)cnc3C)ccc12` [Compound 13, N-[5-(3-Ethyl-1H-pyrazolo[3,4-b]pyridin-6-yl)-6-methyl-pyridin-3-yl]-3,5-dimethoxy-benzamide], `CCc1n[nH]c2nc(-c3cc(NC(=O)c4cc(OC)cc(C(F)(F)F)c4)cnc3C)ccc12` [Compound 49, N-[5-(3-Ethyl-1H-pyrazolo[3,4-b]pyridin-6-yl)-6-methyl-pyridin-3-yl]-3-methoxy-5-trifluoromethyl-benzamide] is higher in IC50: 25 to 50 nM for the first, over 100 nM for the second. The first is the more potent here.

`Cc1cc(C)cc(C(=O)Nc2ccc(C)c(-c3ccc4c(CO)n[nH]c4n3)c2)c1` [Compound 16, N-[3-(3-Hydroxymethyl-1H-pyrazolo[3,4-b]pyridin-6-yl)-4-methyl-phenyl]-3,5-dimethyl-benzamide] and `CCc1n[nH]c2nc(-c3cc(NC(=O)c4cc(C)cc(OCCOC)c4)ccc3C)ccc12` [Compound 21, N-[3-(3-Ethyl-1H-pyrazolo[3,4-b]pyridin-6-yl)-4-methyl-phenyl]-3-(2-methoxy-ethoxy)-5-methyl-benzamide] fall in the same range of IC50: 0.01 to 25 nM for the first, 0.01 to 25 nM for the second.

`CCc1n[nH]c2nc(-c3cc(NC(=O)c4cc(C)cc(OCCN5CCOCC5)c4)ccc3C)ccc12` [Compound 20, N-[3-(3-Ethyl-1H-pyrazolo[3,4-b]pyridin-6-yl)-4-methyl-phenyl]-3-methyl-5-(2-morpholin-4-yl-ethoxy)-benzamide] and `CCc1n[nH]c2nc(-c3cc(NC(=O)c4cc(C)cc(C)c4)cnc3C)ccc12` [Compound 50, N-[5-(3-Ethyl-1H-pyrazolo[3,4-b]pyridin-6-yl)-6-methyl-pyridin-3-yl]-3,5-dimethyl-benzamide] fall in the same range of IC50: 0.01 to 25 nM for the first, 0.01 to 25 nM for the second.

First: Cc1ccc(NC(=O)c2cccc(C(F)(F)F)c2)cc1-c1ccc2c(C(C)O)n[nH]c2n1 (stereo not shown) [Compound 35, N-{3-[3-(1-Hydroxy-ethyl)-1H-pyrazolo[3,4-b]pyridin-6-yl]-4-methyl-phenyl}-3-trifluoromethyl-benzamide]
Second: Cc1ccc(NC(=O)c2cccc(C(F)(F)F)c2)cc1-c1ccc2c([C@H](C)O)n[nH]c2n1 [Compound 55, N-{3-[3-((S)-1-Hydroxy-ethyl)-1H-pyrazolo[3,4-b]pyridin-6-yl]-4-methyl-phenyl}-3-trifluoromethyl-benzamide]
The IC50 of the first is higher: 25 to 50 nM for the first, 0.01 to 25 nM for the second. The second is the more potent here.
